Laboratory results reported in patent US9169254B2, “Spiroimidazolone derivative” (Chugai Seiyaku Kabushiki Kaisha, priority 2009, dated 2015).
Where a name gives a salt, the structure may show the parent alone.

These compounds were tested against T1, human PTH1 receptor (Homo sapiens, UniProt Q03431) (assay: In vitro cAMP signal activity in HKRK-B7 cells (LLC-PK1 cells overexpressing the human PTH1 receptor)). Settings: HKRK-B7 cells; compound at 1×10^−3 M; cAMP produced as percentage of that produced by hPTH(1-34) at 100 nM.
T1 sequence (Q03431 27-593): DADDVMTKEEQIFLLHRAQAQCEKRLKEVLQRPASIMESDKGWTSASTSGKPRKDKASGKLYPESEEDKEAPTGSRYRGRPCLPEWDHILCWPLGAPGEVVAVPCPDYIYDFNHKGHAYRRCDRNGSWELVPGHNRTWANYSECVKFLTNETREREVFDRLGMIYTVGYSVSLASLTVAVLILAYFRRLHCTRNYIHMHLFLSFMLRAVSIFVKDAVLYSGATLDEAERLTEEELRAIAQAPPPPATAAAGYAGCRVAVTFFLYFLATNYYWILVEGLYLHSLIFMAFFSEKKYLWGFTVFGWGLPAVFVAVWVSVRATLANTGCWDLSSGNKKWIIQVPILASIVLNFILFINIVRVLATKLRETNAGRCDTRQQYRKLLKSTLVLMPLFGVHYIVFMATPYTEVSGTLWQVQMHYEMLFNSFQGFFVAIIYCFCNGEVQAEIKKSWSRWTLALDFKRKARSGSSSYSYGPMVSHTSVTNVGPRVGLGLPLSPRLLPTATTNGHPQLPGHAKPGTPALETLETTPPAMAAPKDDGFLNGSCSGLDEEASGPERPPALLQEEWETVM
Format: cell-based

Row | Compound | cAMP production activity (%)
1 | O=C(OCc1ccccc1)N1CCCC(C2=NC3(CCN(S(=O)(=O)c4cccc(Cl)c4)CC3)C(=O)N2)C1 (stereo not shown) [Compound 461, 3-[8-(3-chloro-benzenesulfonyl)-4-oxo-1,3,8-triaza-spiro[4.5]dec-1-en-2-yl]-piperidine-1-carboxylic acid benzyl ester] | 51%
2 | Cc1cc(OC2CCNCC2)ccc1CCS(=O)(=O)N1CCC2(CC1)N=C(c1cccc(OC(F)(F)F)c1)NC2=O [Compound 889, 8-{2-[2-Methyl-4-(piperidin-4-yloxy)-phenyl]-ethanesulfonyl}-2-(3-trifluoromethoxy-phenyl)-1,3,8-triaza-spiro[4.5]dec-1-en-4-one hydrochloride] | 26%
3 | O=C1NC(c2cccc(C(F)(F)F)c2)=NC12CCN(S(=O)(=O)CCc1cccc3c1ccn3C[C@H](O)CO)CC2 [Compound 840, 8-{2-[1-((S)-2,3-dihydroxy-propyl)-1H-indol-4-yl]-ethanesulfonyl}-2-(3-trifluoromethyl-phenyl)-1,3,8-triaza-spiro[4.5]dec-1-en-4-one] | 98%
4 | O=C1NC(c2cccc(C(F)(F)F)c2)=NC12CCN(S(=O)(=O)CCc1ccc(NCCO)cc1C(F)(F)F)CC2 [Compound 286, 8-{2-[4-(2-hydroxy-ethylamino)-2-trifluoromethyl-phenyl]-ethanesulfonyl}-2-(3-trifluoromethyl-phenyl)-1,3,8-triaza-spiro[4.5]dec-1-en-4-one] | 54%
5 | Cc1cc(C(=O)N(C)C)ccc1CCS(=O)(=O)N1CCC2(CC1)N=C(c1cccc(COCC(F)F)c1)NC2=O [Compound 169, 4-(2-{2-[3-(2,2-difluoro-ethoxymethyl)-phenyl]-4-oxo-1,3,8-triaza-spiro[4.5]dec-1-ene-8-sulfonyl}-ethyl)-3,N,N-trimethyl-benzamide] | 71%

The next lines start with the values.

Row | cAMP production activity (%) | Compound
6 | 51% | C=CCCCN(C)C(=O)c1ccc(CCS(=O)(=O)N2CCC3(CC2)N=C(c2cc(OCCC=C)cc(C(F)(F)F)c2)NC3=O)c(C)c1 [Compound 1405, 4-{2-[2-(3-But-3-enyloxy-5-trifluoromethyl-phenyl)-4-oxo-1,3,8-triaza-spiro[4.5]dec-1-ene-8-sulfonyl]-ethyl}-3,N-dimethyl-N-pent-4-enyl-benzamide]
7 | 60% | COC(=O)N(C)c1ccc(/C=C/S(=O)(=O)N2CCC3(CC2)N=C(c2cccc(OC(F)(F)F)c2)NC3=O)c(C)c1 [Compound 467, methyl-(3-methyl-4-{(E)-2-[4-oxo-2-(3-trifluoromethoxy-phenyl)-1,3,8-triaza-spiro[4.5]dec-1-ene-8-sulfonyl]-vinyl}-phenyl)-carbamic acid methyl ester]
8 | 77% | Cc1cc(C(=O)N2CCC(O)(CF)CC2)cc(C)c1/C=C/S(=O)(=O)N1CCC2(CC1)N=C(c1ccc(F)c(OCCCF)c1)NC2=O [Compound 1264, 2-[4-fluoro-3-(3-fluoro-propoxy)-phenyl]-8-{(E)-2-[4-(4-fluoromethyl-4-hydroxy-piperidine-1-carbonyl)-2,6-dimethyl-phenyl]-ethenesulfonyl}-1,3,8-triaza-spiro[4.5]dec-1-en-4-one]
9 | 101% | Cc1cc(C(=O)N2CCC(O)(CF)CC2)cc(C)c1/C=C/S(=O)(=O)N1CCC2(CC1)N=C(c1ccc(C(F)(F)F)c(Cl)c1)NC2=O [Compound 1241, 2-(3-chloro-4-trifluoromethyl-phenyl)-8-{(E)-2-[4-(4-fluoromethyl-4-hydroxy-piperidine-1-carbonyl)-2,6-dimethyl-phenyl]-ethenesulfonyl}-1,3,8-triaza-spiro[4.5]dec-1-en-4-one]
10 | 109% | Cc1cc(N(C)C(N)=O)cc(C)c1/C=C/S(=O)(=O)N1CCC2(CC1)N=C(c1cccc(OC(F)(F)C(F)F)c1)NC2=O [Compound 1018, 1-[3,5-dimethyl-4-((E)-2-{4-oxo-2-[3-(1,1,2,2-tetrafluoro-ethoxy)-phenyl]-1,3,8-triaza-spiro[4.5]dec-1-ene-8-sulfonyl}-vinyl)-phenyl]-1-methyl-urea]
